The text below walks through data of ChEMBL document CHEMBL3045853, “Bifenthrin longevity at the termiticidal application rate” (2012).

The structures appear in SMILES notation. The source made the active and inactive calls. No cut-off for these calls is given here.

Experiment [1] deals with Reticulitermes flavipes. Nature of the experiment: Termiticidal activity against Reticulitermes flavipes assessed as mortality at 0.6 ug/g after 10 months by forced exposure test. The class given is functional.
Experiment [2] deals with Reticulitermes flavipes. Nature of the experiment: Termiticidal activity against Reticulitermes flavipes assessed as mortality at 0.6 ug/g after 5 months by forced exposure test. The experiment is classed as functional.
For experiment [3], the system named is Reticulitermes flavipes. Description: Termiticidal activity against Reticulitermes flavipes assessed as mortality at 0.6 ug/g by forced exposure test. The experiment is classed as functional.
Experiment [4] relates to Reticulitermes flavipes. Nature of the experiment: Termiticidal activity against Reticulitermes flavipes after 7 days by forced exposure test. The class given is functional, organism-based.
Experiment [5] concerns Reticulitermes flavipes. Nature of the experiment: Termiticidal activity against Reticulitermes flavipes after 3 days by forced exposure test. The experiment is classed as functional.
The test system of experiment [6] is Reticulitermes flavipes. Description: Termiticidal activity against Reticulitermes flavipes assessed as mortality after 4 days by forced exposure test. The class given is functional.
Experiment [7] deals with Reticulitermes flavipes. Description: Termiticidal activity against Reticulitermes flavipes assessed as mortality at 0.06 ug/g after 7 days by forced exposure test. The class given is functional.
In experiment [8] the test system is Reticulitermes flavipes. Nature of the experiment: Termiticidal activity against Reticulitermes flavipes assessed as mortality at 0.6 ug/g after 3 days by forced exposure test. The experiment is classed as functional.
Experiment [9] deals with Reticulitermes flavipes. Description: Termiticidal activity against Reticulitermes flavipes assessed as mortality at 6.9 ug/g after 7 days by forced exposure test. The experiment is classed as functional.
In experiment [10] the test system is Reticulitermes flavipes. Nature of the experiment: Termiticidal activity against Reticulitermes flavipes at 0.69 ug/g after 7 days by forced exposure test. The experiment is classed as functional, organism-based.

For the compound `Cc1c(COC(=O)[C@@H]2[C@H](/C=C(\Cl)C(F)(F)F)C2(C)C)cccc1-c1ccccc1` [BIFENTHRIN], the values for the mortality with Reticulitermes flavipes [1], in the experiment with Reticulitermes flavipes [2] and with Reticulitermes flavipes [3] were 73.9%, 63% and 100%, respectively. In addition, the result in the experiment with Reticulitermes flavipes [4] was inactive. For the same compound, the LC50 with Reticulitermes flavipes [5] came to 0.074 µg/g. Moreover, the LC95 in the experiment on Reticulitermes flavipes [5] amounted to 0.724 µg/g.
Turning to `N#Cc1nn(-c2c(Cl)cc(C(F)(F)F)cc2Cl)c(N)c1[S+]([O-])C(F)(F)F` (configuration not stated) [FIPRONIL], the LC50 in the experiment on Reticulitermes flavipes [6] was 0.49 µg/g. Also, the mortality in the experiment on Reticulitermes flavipes [7] and with Reticulitermes flavipes [8] was 100% each time.
For `O=[N+]([O-])/N=C1\NCCN1Cc1ccc(Cl)nc1` [IMIDACLOPRID], the mortality in the experiment on Reticulitermes flavipes [9] turned out to be 80%. Moreover, the result with Reticulitermes flavipes [10] and with Reticulitermes flavipes [5] was inactive.
